Results from US10947242B2, “[1,2,4]triazolo[1,5and#8208;A]pyrimidine compounds as PDE2 inhibitors” (Janssen Pharmaceutica NV, priority 2016, dated 2021).
Read-outs that look alike come from different tables or passages of the source.

How the values were obtained:
Type in all cases: biochemical
[1] = biological target: T1, Human recombinant PDE2A (hPDE2A) (Homo sapiens, UniProt O00408); experiment: In vitro assay PDE2A (SPA, 3H-cGMP hydrolysis); details: for Emax: read-out: hPDE2A Emax
T1 construct: His tag (inferred from metal chelate purification); made in house; host or cells: Sf9 insect cells (baculovirus)

[2] = biological target: T2, Human recombinant PDE3A (hPDE3A) (Homo sapiens, UniProt Q14432); experiment: In vitro assay PDE3A (SPA, 3H-cAMP hydrolysis); details: for IC50: hPDE3B pIC50, read-out: pIC50 (converted); for Emax: read-out: hPDE3B Emax, read-out: Emax;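 for all read-outs here: the method names PDE3A and the table heading PDE3B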
T2 construct: purchased Scottish Biomedical; host or cells: Sf9 insect cells
Protocol: Human recombinant PDE3A (hPDE3A) was supplied as a partially purified insect cell lysate by Scottish Biomedical, it was cloned from human brain and expressed in Sf9 cells. Tested compounds were dissolved and diluted in 100% DMSO to a concentration 100 fold of the final concentration in the assay. Compound dilutions (0.4 μl) were added in 384 well plates to 20 μl of incubation buffer (50 mM Tris pH 7.8, 8.3 mM MgCl2, 1.7 mM EGTA). 10 μl of hPDE3A enzyme in incubation buffer was added and the reaction was started by addition of 10 μl substrate to a final concentration of 0.4 μM cAMP and 2.4 μCi/ml [^3H]-cAMP. The reaction was incubated for 60 min at room temperature. […] After sedimentation of the beads during 30 min the radioactivity was measured in a Perkin Elmer Topcount scintillation counter and results were expressed as cpm. For blanc values the enzyme was omitted from the reaction and replaced by incubation buffer. Control values were obtained by addition of a final concentration of 1% DMSO instead of compound.

[3] = biological target: T3, Human recombinant PDE10A (hPDE10A) (Homo sapiens, UniProt Q9Y233); experiment: In vitro assay PDE10A, human clone (SPA, 3H-cAMP hydrolysis)
T3 construct: His tag (inferred from metal chelate purification); made in house; host or cells: Sf9 insect cells (baculovirus)
Protocol: Rat recombinant PDE10A (rPDE10A2) was expressed in Sf9 cells using a recombinant rPDE10A baculovirus construct. […] Tested compounds were dissolved and diluted in 100% DMSO to a concentration 100 fold of the final concentration in the assay. Human recombinant PDE10A ([…]) was expressed in Sf9 cells using a recombinant hPDE10A baculovirus that was made and amplified in house. […] Compound dilutions (0.4 μl) were added in 384 well plates to 20 μl of incubation buffer (50 mM Tris pH 7.8, 8.3 mM MgCl2, 1.7 mM EGTA). 10 μl of rPDE10A or hPDE10A enzyme in incubation buffer was added and the reaction was started by addition of 10 μl substrate to a final concentration of 60 nM cAMP and 0.008 μCi ^3H-cAMP. The reaction was incubated for 60 minutes at room temperature. […] After sedimentation of the beads during 30 minutes the radioactivity was measured in a Perkin Elmer Topcount scintillation counter and results were expressed as cpm. For blanc values the enzyme was omitted from the reaction and replaced by incubation buffer. Control values were obtained by addition of a final concentration of 1% DMSO instead of compound.

[4] = read-out: hPDE2A pIC50 (converted)
[5] = human clone (h), default, read-out: hPDE10A2 Emax
[6] = human clone (h), default, read-out: hPDE10A2 pIC50 (converted)
[7] = human clone by default (no (r) mark), read-out: hPDE10A2 or rPDE10A2 Emax
[8] = human clone by default (no (r) mark), read-out: hPDE10A2 or rPDE10A2 pIC50 (converted)
[9] = human recombinant PDE2A, 10 μM cGMP substrate, read-out: hPDE2A pIC50 (converted)

T1 sequence (O00408 whole entry): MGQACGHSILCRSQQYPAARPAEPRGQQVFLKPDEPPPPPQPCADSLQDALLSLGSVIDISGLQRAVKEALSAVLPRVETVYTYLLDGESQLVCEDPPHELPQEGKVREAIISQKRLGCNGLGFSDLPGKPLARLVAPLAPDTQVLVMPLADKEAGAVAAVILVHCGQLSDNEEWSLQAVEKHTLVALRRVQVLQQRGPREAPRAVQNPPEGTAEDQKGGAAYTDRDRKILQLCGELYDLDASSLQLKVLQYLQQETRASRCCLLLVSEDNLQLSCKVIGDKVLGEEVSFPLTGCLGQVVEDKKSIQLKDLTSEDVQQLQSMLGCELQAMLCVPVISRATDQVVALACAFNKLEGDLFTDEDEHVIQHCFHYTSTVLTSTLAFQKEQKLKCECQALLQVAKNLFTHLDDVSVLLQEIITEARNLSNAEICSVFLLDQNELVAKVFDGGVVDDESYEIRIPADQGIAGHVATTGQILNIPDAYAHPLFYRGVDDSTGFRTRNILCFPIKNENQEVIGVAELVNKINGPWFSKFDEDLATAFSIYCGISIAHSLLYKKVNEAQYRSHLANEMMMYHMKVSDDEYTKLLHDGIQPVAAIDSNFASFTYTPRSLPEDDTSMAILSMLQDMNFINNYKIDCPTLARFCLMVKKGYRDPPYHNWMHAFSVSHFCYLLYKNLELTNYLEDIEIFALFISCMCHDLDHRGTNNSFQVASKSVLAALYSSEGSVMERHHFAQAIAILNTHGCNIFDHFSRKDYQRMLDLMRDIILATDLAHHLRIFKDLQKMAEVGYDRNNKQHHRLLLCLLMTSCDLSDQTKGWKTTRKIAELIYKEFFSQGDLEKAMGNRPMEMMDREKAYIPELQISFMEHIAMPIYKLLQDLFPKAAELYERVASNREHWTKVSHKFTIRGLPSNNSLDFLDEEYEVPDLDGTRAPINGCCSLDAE
T3 sequence (Q9Y233 267-1055): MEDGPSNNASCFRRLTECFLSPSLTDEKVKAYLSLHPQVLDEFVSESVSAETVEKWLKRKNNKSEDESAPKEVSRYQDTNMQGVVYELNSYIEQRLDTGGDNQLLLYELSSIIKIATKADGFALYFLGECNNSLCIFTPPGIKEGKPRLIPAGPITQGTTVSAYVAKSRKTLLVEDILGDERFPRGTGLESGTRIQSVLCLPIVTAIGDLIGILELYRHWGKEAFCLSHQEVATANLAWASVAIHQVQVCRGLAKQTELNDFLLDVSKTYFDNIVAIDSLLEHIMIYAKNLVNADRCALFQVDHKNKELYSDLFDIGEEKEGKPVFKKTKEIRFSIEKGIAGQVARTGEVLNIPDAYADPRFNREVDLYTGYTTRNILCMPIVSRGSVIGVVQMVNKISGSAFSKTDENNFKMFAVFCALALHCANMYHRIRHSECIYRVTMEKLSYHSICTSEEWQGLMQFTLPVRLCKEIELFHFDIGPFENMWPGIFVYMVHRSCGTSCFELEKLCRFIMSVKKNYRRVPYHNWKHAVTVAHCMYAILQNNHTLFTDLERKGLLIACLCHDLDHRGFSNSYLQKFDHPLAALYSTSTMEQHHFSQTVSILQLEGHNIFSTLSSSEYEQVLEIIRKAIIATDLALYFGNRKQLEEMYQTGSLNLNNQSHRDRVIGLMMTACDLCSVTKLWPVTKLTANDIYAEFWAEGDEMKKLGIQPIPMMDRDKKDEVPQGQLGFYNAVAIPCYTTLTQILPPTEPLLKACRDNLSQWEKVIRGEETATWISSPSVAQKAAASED
T2 sequence (Q14432 whole entry): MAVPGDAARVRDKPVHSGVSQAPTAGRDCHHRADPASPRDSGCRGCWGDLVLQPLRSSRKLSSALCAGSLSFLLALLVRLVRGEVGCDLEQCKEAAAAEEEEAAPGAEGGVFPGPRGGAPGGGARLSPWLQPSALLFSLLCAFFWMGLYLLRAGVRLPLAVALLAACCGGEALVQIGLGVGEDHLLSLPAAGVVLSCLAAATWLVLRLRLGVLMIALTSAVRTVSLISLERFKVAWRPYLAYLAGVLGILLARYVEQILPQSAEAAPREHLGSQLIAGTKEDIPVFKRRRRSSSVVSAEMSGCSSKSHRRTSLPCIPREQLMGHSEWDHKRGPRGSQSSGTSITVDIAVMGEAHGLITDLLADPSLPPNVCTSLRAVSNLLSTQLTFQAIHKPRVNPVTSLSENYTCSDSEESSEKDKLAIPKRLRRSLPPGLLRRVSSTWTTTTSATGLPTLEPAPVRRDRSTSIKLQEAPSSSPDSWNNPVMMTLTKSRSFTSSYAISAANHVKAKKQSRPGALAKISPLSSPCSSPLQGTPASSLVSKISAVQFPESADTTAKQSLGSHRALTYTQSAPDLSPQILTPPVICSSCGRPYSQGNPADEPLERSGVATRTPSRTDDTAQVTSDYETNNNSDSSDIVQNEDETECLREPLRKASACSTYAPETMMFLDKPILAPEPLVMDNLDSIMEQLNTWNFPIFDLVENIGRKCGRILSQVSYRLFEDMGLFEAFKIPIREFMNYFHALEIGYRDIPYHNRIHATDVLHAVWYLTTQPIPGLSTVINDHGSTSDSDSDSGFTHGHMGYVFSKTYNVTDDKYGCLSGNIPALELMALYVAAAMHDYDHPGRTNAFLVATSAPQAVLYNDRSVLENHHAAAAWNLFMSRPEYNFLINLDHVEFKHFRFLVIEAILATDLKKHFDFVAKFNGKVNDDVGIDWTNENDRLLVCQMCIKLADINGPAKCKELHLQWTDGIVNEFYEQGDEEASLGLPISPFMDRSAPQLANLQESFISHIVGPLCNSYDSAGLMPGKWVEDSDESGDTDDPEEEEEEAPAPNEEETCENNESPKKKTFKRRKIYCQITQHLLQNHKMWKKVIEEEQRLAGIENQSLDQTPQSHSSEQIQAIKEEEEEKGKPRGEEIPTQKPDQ

Row | SMILES | Emax [1] [%] | IC50 [1, 4] [µM] | IC50 [2] [µM] | Emax [2] [%] | Emax [3, 5] [%] | IC50 [3, 6] [µM] | Emax [3, 7] [%] | IC50 [3, 8] [µM] | IC50 [1, 9] [µM] | Emax ([1]; human recombinant PDE2A) [%] | IC50 ([1]; hPDE2A pIC50) [µM] | IC50 ([1]; hPDE2A pIC50, human recombinant PDE2A, 10 μM cGMP substrate) [µM]
1 | Cc1nc(C)c(C(=O)N2CC[C@@H](C)[C@H](c3cc(C(F)F)nc4ncnn34)C2)s1 [Compound 264] | 100 | 0.105 | 10.5 | 47 | 74 | 3.31 | 74 | 3.31 |  |  |  | 
2 | C[C@@H]1CCN(C(=O)c2ccc3cnccc3c2)C[C@H]1c1cc(C(F)F)nc2ncnn12 [Compound 326] | 100 | 0.00214 | 0.257 | 97 |  |  | 99 | 0.0603 |  |  |  | 
3 | O=C(c1ccc(Cl)s1)N1[C@H]2CC[C@H](c3cc(C(F)F)nc4ncnn34)[C@@H]1CC2 [Compound 351] | 99 | 0.0513 | 6.31 | 69 |  |  | 83 | 2.14 |  |  |  | 
4 | C[C@@H]1CCN(C(=O)c2cccc(C(C)(C)C#N)c2)C[C@H]1c1cc(C(F)F)nc2ncnn12 [Compound 175] | 100 | 0.0049 | 6.03 | 71 | 98 | 0.141 |  |  | 0.0049 | 100 |  | 
5 | Cc1ccc(F)c(C(=O)N2CC[C@@H](C)[C@@H](c3cc(C(F)F)nc4ncnn34)C2)n1 [Compound 222] | 98 | 0.282 | > 10 | 13 | 59 | 6.76 | 59 | 6.76 | 0.282 | 98 |  | 
6 | O=C(c1ccc(C(F)(F)F)c(F)c1)N1[C@H]2CC[C@H](c3cc(C(F)F)nc4ncnn34)[C@@H]1CC2 [Compound 338] | 99 | 0.0912 | 5.5 | 62 |  |  | 70 | 3.09 |  |  |  | 
7 | CC(C)(C)c1ccc(C(=O)N2[C@H]3CC[C@H](c4cc(C(F)F)nc5ncnn45)[C@@H]2CC3)o1 [Compound 348] | 99 | 0.0339 | 4.47 | 70 |  |  | 92 | 1.29 |  |  |  | 
8 | C[C@@H]1CCN(C(=O)c2cccnc2N)C[C@H]1c1cc(C(F)F)nc2ncnn12 [Compound 150] | 100 | 0.0398 | > 10 | 22 | 72 | 3.55 |  |  | 0.0398 | 100 |  | 
9 | C[C@@H]1CCN(C(=O)c2cccc3ncoc23)C[C@H]1c1cc(C(F)F)nc2ncnn12 [Compound 176] | 100 | 0.00912 | 8.71 | 56 | 88 | 0.891 |  |  | 0.00912 | 100 |  | 
10 | Cc1cc([C@H]2CN(C(=O)c3ccc(C)c(C)n3)CC[C@@H]2C)n2ncnc2n1 [Compound 3b] | 64 |  | > 10 | 14 | 19 | > 10 |  |  |  |  | 5.62 | 5.62
11 | Cc1cc([C@@H]2CC[C@@H]3CC[C@H]2N3C(=O)c2ccc3ncsc3c2)n2ncnc2n1 [Compound 230] | 93 | 1.02 | > 10 | 40 | 65 | 5.37 | 65 | 5.37 | 1.02 | 93 |  | 
12 | C[C@@H]1CCN(C(=O)c2ccc(N)nc2)C[C@H]1c1cc(C(F)F)nc2ncnn12 [Compound 181] | 98 | 0.00457 | > 10 | 52 | 94 | 0.309 |  |  | 0.00457 | 98 |  | 
13 | COc1c(C(=O)N2CC[C@@H](C)[C@H](c3cc(C(F)F)nc4ncnn34)C2)cccc1C(F)(F)F [Compound 247] | 98 | 0.155 | 2.04 | 85 | 77 | 2.88 | 77 | 2.88 |  |  |  | 
